Measured values as given in the supplement of paper PMC10307832.

Legend:
Assay in all cases: relative viability (nuclei count vs DMSO), 5 days (fraction); higher = more cells survive
[1] = compound: C[C@]1(c2nc3c(C(N)=O)cccc3[nH]2)CCCN1 [Veliparib] + Cc1nc(NC(=O)N2CCC[C@H]2C(N)=O)sc1-c1ccnc(C(C)(C)C(F)(F)F)c1 [Alpelisib] (partner 2 µM)
How it was run: (§1)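 Dosing by pin tool came one day after lung cancer cell lines were seeded in 1536-well plates, using either one drug or a fixed anchor-drug dose plus five library-drug doses (not always all listed) in √10 steps. After 5 days, nuclei were counted on 4× images. Relative viability is treated-well nuclei count divided by vehicle-well nuclei count, and values are medians of duplicate plates.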

[2] = compound: C[C@]1(c2nc3c(C(N)=O)cccc3[nH]2)CCCN1 [Veliparib] + N=C(N)NC(=N)NCCc1ccccc1 [Phenformin] (partner 250 µM)
How it was run: as §1

[3] = compound: C[C@]1(c2nc3c(C(N)=O)cccc3[nH]2)CCCN1 [Veliparib] + Cc1cc(Nc2cc(N3CCN(C)CC3)nc(Sc3ccc(NC(=O)C4CC4)cc3)n2)n[nH]1 [Tozasertib] (partner 0.1 µM)
How it was run: as §1

[4] = compound: C[C@]1(c2nc3c(C(N)=O)cccc3[nH]2)CCCN1 [Veliparib] + CC(=O)c1c(C)c2cnc(Nc3ccc(N4CCNCC4)cn3)nc2n(C2CCCC2)c1=O [Palbociclib] (partner 0.5 µM)
How it was run: as §1

Cell Line	relative viability ([1]; first compound 0.02 µM)	relative viability ([1]; first compound 0.06325 µM)	relative viability ([1]; first compound 0.2 µM)	relative viability ([1]; first compound 0.6325 µM)	relative viability ([1]; first compound 2 µM)	relative viability ([2]; first compound 0.02 µM)	relative viability ([2]; first compound 0.06325 µM)	relative viability ([2]; first compound 0.2 µM)	relative viability ([2]; first compound 0.6325 µM)	relative viability ([2]; first compound 2 µM)	relative viability ([3]; first compound 0.02 µM)	relative viability ([3]; first compound 0.06325 µM)	relative viability ([3]; first compound 0.2 µM)	relative viability ([3]; first compound 0.6325 µM)	relative viability ([3]; first compound 2 µM)	relative viability ([4]; first compound 0.06325 µM)	relative viability ([4]; first compound 0.2 µM)	relative viability ([4]; first compound 0.6325 µM)	relative viability ([4]; first compound 2 µM)	relative viability ([4]; first compound 0.02 µM)
NCI-H1734	0.734	0.569	0.705	0.667	0.744	0.358	0.379	0.383	0.33	0.455	0.309	0.262	0.284	0.268	0.269	0.32	0.351	0.323	0.349	–
NCI-H1755	0.898	0.939	0.942	0.881	0.922	0.637	0.629	0.631	0.518	0.608	0.557	0.514	0.569	0.571	0.552	0.469	0.442	0.455	0.395	0.46
NCI-H1793	0.819	0.582	0.755	0.661	0.69	0.392	0.384	0.466	0.329	0.361	0.364	0.349	0.391	0.371	0.41	0.292	0.336	0.348	0.331	0.31
NCI-H1915	1.03	1.02	0.976	0.898	0.926	0.379	0.36	0.345	0.36	0.361	0.402	0.426	0.413	0.409	0.394	0.461	0.519	0.512	0.504	0.541
NCI-H1944	0.792	0.849	0.752	0.818	0.756	0.211	0.188	0.207	0.197	0.204	0.261	0.253	0.252	0.251	0.249	0.348	0.355	0.324	0.329	0.302
NCI-H1975	0.64	0.657	0.685	0.605	0.632	0.434	0.395	0.407	0.368	0.397	0.932	0.729	0.775	0.699	0.723	0.544	0.513	0.543	0.535	0.533
NCI-H1993	0.655	0.615	0.726	0.639	0.75	0.568	0.567	0.561	0.552	0.482	0.612	0.583	0.671	0.627	0.598	0.569	0.59	0.614	0.636	–
NCI-H2009	1.19	0.994	1.17	1.15	1.23	0.455	0.452	0.483	0.457	0.473	0.798	0.753	0.741	0.745	0.854	0.211	0.235	0.205	0.2	0.145
NCI-H2023	0.629	0.621	0.569	0.502	0.669	0.39	0.417	0.39	0.384	0.411	0.518	0.376	0.342	0.431	0.367	0.329	0.391	0.346	0.398	–
NCI-H2085	1.07	0.977	0.843	0.875	0.966	–	0.734	0.795	0.652	0.699	0.737	0.888	0.75	0.738	0.849	0.476	0.477	0.471	0.479	0.454
NCI-H2087	1.05	1.02	1.09	1.07	1.04	0.334	0.467	0.428	0.435	0.486	0.258	0.235	0.222	0.203	0.27	0.222	0.249	0.264	0.216	0.183
NCI-H2126	0.76	0.745	0.725	0.655	0.739	0.556	0.535	0.519	0.498	0.541	0.821	0.784	0.842	0.819	0.849	0.357	0.373	0.33	0.313	0.357
NCI-H2170	0.826	0.806	0.931	0.786	0.764	0.472	0.41	0.415	0.401	0.459	0.748	0.744	0.724	0.709	0.747	0.446	0.435	0.386	0.399	0.43
NCI-H2228	0.818	0.688	0.832	0.623	0.678	0.209	0.301	0.276	0.284	0.236	0.31	0.318	0.352	0.176	0.353	0.897	0.645	0.774	0.759	0.553
NCI-H2347	1.01	0.946	1.01	0.957	1.02	0.426	0.273	0.473	0.464	0.366	0.55	0.501	0.492	0.553	0.541	0.411	0.404	0.444	0.477	0.44
NCI-H2405	–	0.776	0.808	0.769	0.817	0.388	0.371	0.411	0.393	0.308	0.793	0.689	0.714	0.724	0.777	–	0.569	0.504	0.503	0.529
NCI-H3122	0.785	0.755	0.768	0.76	0.752	0.335	0.345	0.384	0.357	0.387	0.439	0.428	0.453	0.383	0.395	0.147	0.207	0.179	0.192	0.166
PC-3 [JPC-3]	1.1	0.981	0.959	1.03	0.993	0.471	0.478	0.498	0.469	0.495	0.87	0.902	0.822	0.864	0.845	–	0.493	0.566	0.543	0.54
PC-14	0.923	0.862	0.796	0.886	0.893	–	0.526	0.647	0.59	0.435	0.638	0.584	0.562	0.526	0.674	0.514	0.51	0.465	0.523	–
RERF-LC-KJ	0.715	0.891	0.96	0.761	0.74	0.408	0.442	0.4	0.396	0.47	0.515	0.5	0.521	0.481	0.485	1.03	1.06	1.09	1.13	1.07
SK-LU-1	1.12	0.943	1.12	0.927	1.19	0.588	0.524	0.544	0.512	0.506	0.366	0.32	0.37	0.344	0.343	0.379	0.394	0.362	0.378	0.426
SK-MES-1	0.938	0.712	0.878	0.785	0.848	0.707	0.626	0.628	0.599	0.663	0.972	0.903	0.843	0.821	0.858	0.278	0.329	0.307	0.297	0.334
SW 1573	0.803	0.867	0.791	0.675	0.805	–	0.32	0.419	0.324	0.4	–	0.175	0.17	0.204	0.175	0.337	0.431	0.382	0.445	–
UMC-11	1.01	0.941	1.14	0.947	0.972	0.334	0.316	0.312	0.284	0.314	0.234	0.223	0.231	0.213	0.212	0.303	0.318	0.331	0.368	0.314
